Our source for the TGI values is PubChem BioAssay (NCI).

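Cultured in 96-well plates, cells were exposed to test compound for 48 hours across five concentrations. The concentration for full growth arrest is given as TGI.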

Test systems include COLO 205 colon; DLD-1 colon; MDA-MB-231 breast; NCI-H522 lung; OVCAR-3 ovarian; PC-3 prostate; SF-295 CNS; SNB-78 CNS; XF 498 CNS.
Holding throughout (experiment): NCI anticancer screen, dose series, 48 h

Regarding `Cc1ccccc1Nc1nc2c(s1)C(=O)c1ccccc1C2=O`, the TGI with COLO 205 colon turned out to be 34.7 µM; in the test with DLD-1 colon, 13.6 µM; in the test on MDA-MB-231 breast, 15 µM; with NCI-H522 lung, 7.52 µM; in the test with OVCAR-3 ovarian, 5.31 µM; in the test on PC-3 prostate it was 7.95 µM. Moreover, the TGI in the test with SF-295 CNS was 32.9 µM; in the test on SNB-78 CNS it was above 64.8 µM; in the test with XF 498 CNS, 29.3 µM.
`O=c1ncccn1C1C=C(CO)C(O)C1O` (stereo not given): the TGI with COLO 205 colon, with DLD-1 colon, in the test on NCI-H522 lung, with OVCAR-3 ovarian, in the test on SF-295 CNS and in the test on SNB-78 CNS was above 50 µM throughout. For the same compound, the TGI in the test on XF 498 CNS was above 50 µM.
Take `NC(N)=NS(=O)(=O)c1ccc(NC(=O)c2cccc3c(Nc4ccc(S(N)(=O)=O)cc4)c4ccccc4nc23)cc1`: the TGI in the test with COLO 205 colon, in the test with DLD-1 colon, in the test on NCI-H522 lung, with OVCAR-3 ovarian, in the test on SF-295 CNS and in the test on SNB-78 CNS was above 100 µM in each case. The compound further came in with a TGI in the test with XF 498 CNS above 100 µM.
For `COC(=O)/C(C#N)=C1\CCC(C(=O)OC)N1C` (stereo not given), the TGI in the test on COLO 205 colon, in the test on DLD-1 colon, with NCI-H522 lung, with OVCAR-3 ovarian, in the test on SF-295 CNS and with SNB-78 CNS was above 100 µM each time. The same compound showed a TGI with XF 498 CNS above 100 µM.
